# Read-outs that look alike come from different tables or passages of the source.
# How the values were obtained:
# hDGKalpha(1-735)-N-His = hDGKalpha(1-735)-N-His (Homo sapiens (Human), UniProt P23743); assay: DGKalpha ADP Glo assay (in vitro DGK inhibition); type: biochemical; conditions: DLG 125 uM, ATP 25 μM, DGK α 4 nM, 1 hour reaction
# In short: (§1)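 His-tagged human DGKα (4 nM) and DGKζ (2 nM) phosphorylate DLG presented in DLG/PS/PC liposomes using ATP; reaction run 1 hour. ADP formed measured by ADP-Glo luminescence. Compounds tested as 11-point 1:3 dose response […], 2% DMSO final.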
# hDGKzeta(1-928)-N-His = hDGKzeta(1-928)-N-His (Homo sapiens (Human), UniProt Q13574); assay: DGKzeta ADP Glo assay (in vitro DGK inhibition); type: biochemical; conditions: DLG 125 uM, ATP 50 μM, DGK ζ 2 nM, 1 hour reaction
# In short: as §1
# primary human T-cells [1] = assay: Proliferation assay after 5 days (CellTiter-Glo, CD3 stimulation; PBS counter screen); type: cell-based; conditions: Homo sapiens, T-cell, 120 h, CD3 stimulation
# In short: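 Luminescent ATP detection (CellTiter-Glo 2.0) quantified cell number 5 days after compounds went onto medium-only plates. Wells showing visible toxicity or precipitate were noted beforehand, and compounds that stimulated unstimulated cells or lowered viability were flagged.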
# MV-3 cells = assay: T-cell - TCB - MV3 killing assay (MCSP-TCB, RFP object count by Incucyte); type: cell-based, human; conditions: Homo sapiens, MV-3, 120 h, 5 d
# primary human T-cells [2] = test system: primary human T-cells
# Sequence of hDGKalpha(1-735)-N-His (P23743 whole entry): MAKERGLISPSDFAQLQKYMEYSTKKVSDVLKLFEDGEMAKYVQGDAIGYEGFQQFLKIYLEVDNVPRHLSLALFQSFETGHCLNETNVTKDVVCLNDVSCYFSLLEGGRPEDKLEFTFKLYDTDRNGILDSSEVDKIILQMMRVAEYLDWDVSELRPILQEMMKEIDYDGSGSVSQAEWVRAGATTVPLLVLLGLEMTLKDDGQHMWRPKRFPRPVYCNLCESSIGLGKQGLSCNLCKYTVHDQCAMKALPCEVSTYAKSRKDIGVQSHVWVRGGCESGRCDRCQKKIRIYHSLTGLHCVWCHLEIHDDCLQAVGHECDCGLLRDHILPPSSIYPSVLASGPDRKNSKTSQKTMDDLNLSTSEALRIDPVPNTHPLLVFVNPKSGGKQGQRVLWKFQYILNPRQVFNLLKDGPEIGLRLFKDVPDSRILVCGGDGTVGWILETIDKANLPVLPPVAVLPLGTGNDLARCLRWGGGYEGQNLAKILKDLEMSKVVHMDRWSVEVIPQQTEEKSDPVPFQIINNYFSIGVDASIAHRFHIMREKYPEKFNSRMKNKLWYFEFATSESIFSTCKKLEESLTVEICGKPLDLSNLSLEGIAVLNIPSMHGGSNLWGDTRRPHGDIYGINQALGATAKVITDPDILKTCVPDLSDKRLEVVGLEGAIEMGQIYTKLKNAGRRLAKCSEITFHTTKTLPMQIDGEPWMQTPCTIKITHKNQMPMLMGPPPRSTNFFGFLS
# Sequence of hDGKzeta(1-928)-N-His (Q13574 whole entry): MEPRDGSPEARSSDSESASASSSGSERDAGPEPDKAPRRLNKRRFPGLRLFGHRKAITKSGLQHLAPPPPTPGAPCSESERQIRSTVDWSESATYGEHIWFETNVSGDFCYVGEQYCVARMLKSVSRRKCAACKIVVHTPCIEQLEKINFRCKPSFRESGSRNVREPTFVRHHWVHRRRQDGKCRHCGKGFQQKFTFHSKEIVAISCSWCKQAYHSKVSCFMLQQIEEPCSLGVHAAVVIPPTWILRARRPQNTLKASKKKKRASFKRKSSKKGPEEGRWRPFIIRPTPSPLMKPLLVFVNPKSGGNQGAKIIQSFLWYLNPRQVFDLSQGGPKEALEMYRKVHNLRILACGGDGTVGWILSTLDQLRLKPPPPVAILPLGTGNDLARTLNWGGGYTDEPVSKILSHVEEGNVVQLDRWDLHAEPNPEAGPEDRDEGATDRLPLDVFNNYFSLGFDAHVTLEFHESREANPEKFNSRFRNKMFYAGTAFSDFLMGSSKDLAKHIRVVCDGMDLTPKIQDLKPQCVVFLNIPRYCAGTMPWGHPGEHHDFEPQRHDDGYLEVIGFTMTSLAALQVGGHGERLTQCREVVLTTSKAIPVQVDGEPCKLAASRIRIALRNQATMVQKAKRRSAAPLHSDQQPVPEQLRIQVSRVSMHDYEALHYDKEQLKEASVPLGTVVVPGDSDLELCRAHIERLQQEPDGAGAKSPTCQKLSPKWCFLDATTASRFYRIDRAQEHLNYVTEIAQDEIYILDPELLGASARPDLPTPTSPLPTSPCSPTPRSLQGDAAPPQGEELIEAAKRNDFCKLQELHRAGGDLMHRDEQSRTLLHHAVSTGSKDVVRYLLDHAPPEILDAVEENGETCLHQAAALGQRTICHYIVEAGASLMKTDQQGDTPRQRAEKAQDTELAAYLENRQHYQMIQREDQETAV
structure (smiles),measurement,setting,value
"N[C@H]1CS(=O)(=O)c2cc(F)c(-c3nnc(NC4CCCCC4)o3)cc2N(Cc2ccc(Cl)cc2)C1=O [Example 466, (3R)-3-amino-5-[(4-chlorophenyl)methyl]-7-[5-(cyclohexylamino)-1,3,4-oxadiazol-2-yl]-8-fluoro-1,1-dioxo-2,3-dihydro-λ^6,5-benzothiazepin-4-one]",IC50,hDGKalpha(1-735)-N-His,2090 nM
same,IC50,hDGKzeta(1-928)-N-His,1030 nM
same,Emax,"primary human T-cells [1]; 5 days, normalized to reference compound A1 as stimulator control = 100%, DMSO neutral control, read-out: Emax proliferation (% activation)",103%
same,EC50,"primary human T-cells [1]; primary human T-cells, CellTiter-Glo after 5 days, EC50 of fitted sigmoidal curve, read-out: Tcell Proliferation CD3 EC50",454 nM
same,Emax,"MV-3 cells; normalized: MCSP-TCB only = neutral control, 20 μM reference compound A1 = 100%, read-out: MSCP TCB killing MV-3 cells 5 d Emax",95%
same,EC50,"MV-3 cells; primary human T-cells + MCSP-TCB, MV-3 RFP cells, read-out: MSCP TCB killing MV-3 cells 5 d EC50",240 nM
same,EC50,primary human T-cells [2],458 nM

# Source: US20240368150A1 (Hoffmann-La Roche Inc., priority 2021, published 2024)
